Data published in patent publication US11357752B2, “Carolacton and derivatives thereof for use in the treatment of cell proliferation disorders” (Helmholtz-Zentrum für Infektionsforschung GmbH, priority 2017, dated 2022).
In brackets after ≈: the same amount, converted by molar mass.

How the values were obtained:
spFoID = biological target: T1, spFoID (Streptococcus pneumoniae serotype 4, UniProt Q97RI9); assay: FoID cyclohydrolase (CYH) enzyme assay; type: biochemical, S. pneumoniae
T1 construct: made in house; host or cells: E. coli BL21 (DE3)
T1 sequence (Q97RI9 whole entry): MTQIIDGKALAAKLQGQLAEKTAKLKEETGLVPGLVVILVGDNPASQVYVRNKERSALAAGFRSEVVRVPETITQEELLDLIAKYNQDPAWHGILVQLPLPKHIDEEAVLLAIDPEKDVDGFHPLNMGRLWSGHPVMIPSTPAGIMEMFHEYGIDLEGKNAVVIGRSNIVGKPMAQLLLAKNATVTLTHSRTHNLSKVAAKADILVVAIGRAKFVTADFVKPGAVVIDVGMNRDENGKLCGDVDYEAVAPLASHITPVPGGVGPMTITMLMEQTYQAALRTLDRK
Description: (6R,S)-5,10-Methylene-5,6,7,8-tetrahydrofolic acid ((6R,S)-5,10-CH2-THF), calcium salt and (6R,S)-5,10-Methenyl-5,6,7,8-tetrahydrofolic acid ((6R,S)-5,10-CH=THF) chloride were purchased from Schircks Laboratories (Bauma, Switzerland) and were used as substrates for FoID dehydrogenase and cyclohydrolase enzyme assays, respectively. Only the R-isomer, which accounts for 50% of (6R,S)-5,10-CH2-THF and (6R,S)-5,10-CH=THF, respectively, is used by the enzyme. (6R,S)-5,10-CH2-THF was dissolved in N2-spargeled basic buffer (50 mM Tris-HCl (pH 8.0), 100 mM β-mercaptoethanol) as described by Sah and Varshney, 2015a (6R,S)-5,10-CH=THF was first dissolved in DMSO as a 100 mM stock solution.
Because FoID is a bifunctional enzyme, dehydrogenase and cyclohydrolase activities were determined for FoID enzyme kinetics, respectively. The dehydrogenase activity of FoID was assayed for its substrate 5,10-CH2-THF and cofactor NADP+ (in the case of MTHFD2, NAD+ was used as cofactor) based on monitoring the formation of 5,10-CH=THF while the cyclohydrolase activity of FoID was determined for its substrate 5,10-CH=THF by monitoring the hydrolysis of 5,10-CH2-THF. The enzyme kinetics for the dehydrogenase activity of all FoIDs except hsMTHFD1_DC were determined at 30° C. in 50 mM Tris-HCl (pH 7.5), 30 mM β-mercaptoethanol. The hsMTHFD1_DC dehydrogenase activity was measured in 25 mM MOPS (pH 7.3), 30 mM β-mercaptoethanol at 30° C. […] To monitor the formation of 5,10-CH=THF, the absorbance of the reaction mixture was monitored at 350 nm in micro UV cuvettes (BRAND, Essex, Connecticut, USA). The concentration of 5,10-CH=THF produced in the reaction was determined using an extinction co-efficient of 0.0249 μM-1 cm-1. […] The consumption of 5,10-CH=THF was measured by recording the absorbance of the reactions at 355 nm using the TECAN Infinite 200 PRO equipped with a monochromator. […] The inhibition constants (Ki) of carolacton on FoID were determined by measuring the apparent Km values when adding certain amounts of carolacton to the enzyme reactions. […]

S. pneumoniae TIGR4ΔfoID = assay: Planktonic growth of S. pneumoniae foID deletion mutant; type: cell-based, Streptococcus pneumoniae; settings: 0.25 μg/ml carolacton
Description: (§1) FIG. 4. Carolacton effects on S. pneumoniae TIGR4 and foID deletion, complementation and fhs deletion mutants. (A) Growth inhibition of planktonic cultures of S. pneumoniae TIGR4 wild type, ΔfoID deletion mutant and controls in THBY. Carolacton (caro) (0.25 μg/ml) was added at an optical density of 600 nm (OD600) of 0.15. (B) Planktonic growth of the S. pneumoniae TIGR4 wild type and the TIGR4Δfhs mutant in THBY. Cultures were treated with 0.25 μg/ml carolacton (OD600 0.15).
(§2) The Streptococcus mutans and Streptococcus pneumoniae strains used herein are UA159 and TIGR4, respectively. S. pneumoniae TIGR4 was routinely grown on Columbia blood agar plates (BD Biosciences) as described previously (Donner et. al, 2016). Streptococci were grown in Todd-Hewitt-Broth +1% (w/v) yeast extract (THBY, BD Biosciences)) at 37° C. and 5% CO2. The E. coli ToIC strain used in carolacton-resistant mutant development is an antibiotic-sensitive E. coli strain without its outer membrane channel protein ToIC. E. coli DH1OB or DH5α strain was used for gene cloning and E. coli BL21 (DE3) was used for protein expression. The protein expression plasmid pHis-TEV (Liu et al., 2009) was used for cloning and expression of all different foID gene orthologues studied herein.

S. pneumoniae TIGR4Δfhs = assay: Planktonic growth of S. pneumoniae fhs deletion mutant; type: cell-based, Streptococcus pneumoniae; settings: S. pneumoniae fhs inactivated mutant; 0.25 μg/ml carolacton
Description: as §1, §2

L-929 mouse fibroblasts = assay: Cell proliferation assay with mouse fibroblasts (MTT); type: cell-based
Description: L-929 mouse fibroblasts from DSMZ cultivated at 37° C. and 10% CO2 in DME medium (high glucose) supplemented with 10% fetal calf serum. Cell culture reagents came from Life Technologies Inc. (GIBCO BRL). […] of serial dilutions of the test compound were given to […] of suspended cells (50,000/mL) in wells of 96-well plates. After 5 days of incubation growth inhibition (IC50) was determined using an MTT assay (Mosman et al., 1983).

CO[C@H](CC(=O)O)[C@@H](C)C(=O)[C@H](C)/C=C(\C)[C@H]1OC(=O)[C@H](O)[C@H](O)/C=C/[C@H](C)CCC[C@@H]1C [Carolacton, carolacton]
IC50 (spFoID; 5 nM enzyme, read-out: IC50, carolacton inhibition on CYH activity): 38.1 nM
IC80 (spFoID; 5 nM enzyme, read-out: IC80, carolacton inhibition on CYH activity): 101 nM
Ki (spFoID; vs 5,10-CH=THF, read-out: Ki (5,10-CH═THF), carolacton inhibition on CYH activity): 38.1 nM
sensitivity of planktonic growth to carolacton (S. pneumoniae TIGR4ΔfoID): carolacton resistant
inhibition of planktonic growth (S. pneumoniae TIGR4Δfhs): complete inhibition
inhibition of growth of L929 cells reached (L-929 mouse fibroblasts; L929 cells cultivated for 5 days): ≤ 50%
IC50 (L-929 mouse fibroblasts; Mus musculus, L929, 120 h, read-out: adapted IC50, inhibition of mouse fibroblast proliferation): 3.5 µg/mL (≈ 7.47 µM)
